ChEMBL document CHEMBL3784925, “Discovery of a New Inhibitor of Myeloid Differentiation 2 from Cinnamamide Derivatives with Anti-Inflammatory Activity in Sepsis and Acute Lung Injury” (J Med Chem, 2016)
Values belong to the molecule of their own block, whether it stands above or below them. Activity calls are given as the source filed them. The calls are words filed in the database; no cut-off is given here.

How the values were obtained:
[1] = target: T1, Lymphocyte antigen 96 (Mus musculus) (UniProt Q9JHF9); experiment: Inhibition of MD2/TLR4 complex formation in C57BL/6 mouse primary peritoneal macrophages assessed as reversal of LPS-induced […] at 10 uM preincubated for 30 mins followed by LPS addition measured after 1 hr by DAPI staining based fluorescence microscopic analysis
T1 sequence (whole entry): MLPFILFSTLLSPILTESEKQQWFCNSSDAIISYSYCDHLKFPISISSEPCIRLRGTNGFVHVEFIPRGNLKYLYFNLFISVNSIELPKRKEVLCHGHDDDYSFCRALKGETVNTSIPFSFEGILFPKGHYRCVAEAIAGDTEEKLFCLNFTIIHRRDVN

[2] = Cytotoxicity against C57BL/6 mouse primary peritoneal macrophages assessed as reduction in cell viability at 10 uM after 24 hrs by MTT assay; format: cell-based; conditions: peritoneal macrophage cell
Mus musculus [3] = experiment: Antiinflammatory activity in LPS-induced septic shock C57BL/6 mouse model assessed as mouse survival at 10 mg/kg, iv treated 15 mins before LPS challenge measured for 7 days relative to control; format: functional; conditions: C57BL/6, iv
Mus musculus [4] = experiment: (§1) Antiinflammatory activity in acute lung injury C57BL/6 mouse model assessed as inhibition of LPS-induced IL-1beta mRNA expression in lung tissues at 20 mg/kg, po treated 15 mins before LPS challenge measured after 6 hrs; format: functional, organism-based
[5] = target: Mitogen-activated protein kinase 14 (Homo sapiens) (UniProt Q16539); experiment: Inhibition of recombinant human N-terminal GST-tagged p38-alpha (9 to 352 residues) expressed in Escherichia coli using modified erktide as substrate at 0.05 to 50 uM after 1 hr by microfluidic assay
Mus musculus [6] = experiment: Antiinflammatory activity in acute lung injury C57BL/6 mouse model assessed as inhibition of LPS-induced increase in protein concentration in bronchoalveolar lavage fluid at 20 mg/kg, po treated 15 mins before LPS challenge measured after 6 hrs; format: functional, organism-based
Mus musculus [7] = experiment: Antiinflammatory activity in acute lung injury C57BL/6 mouse model assessed as inhibition of LPS-induced thickening of alveolar wall at 20 mg/kg, po treated 15 mins before LPS challenge measured after 6 hrs by hematoxylin and eosin staining based light microscopic analysis; format: functional, organism-based
[8] = Cmax in Sprague-Dawley rat plasma at 20 mg/kg, po after 12 hrs by UPLC analysis; format: ADME, organism-based; parameters: dose 20 mg/kg, route oral
[9] = target: Mitogen-activated protein kinase 3 (Homo sapiens) (UniProt P27361); experiment: Inhibition of full length recombinant human N-terminal GST-tagged ERK1 (1 to 379 residues) expressed in Escherichia coli using modified erktide as substrate at 0.05 to 50 uM after 1 hr by microfluidic assay
[10] = target: Mitogen-activated protein kinase 11 (Homo sapiens) (UniProt Q15759); experiment: Inhibition of full length recombinant human N-terminal GST-tagged p38-beta (1 to 364 residues) expressed in Escherichia coli using modified erktide as substrate at 0.05 to 50 uM after 1 hr by microfluidic assay
[11] = target: Toll-like receptor 4 (Homo sapiens) (UniProt O00206); experiment: Binding affinity to recombinant human TLR4 at 6.25 to 100 uM by surface plasmon resonance analysis
Mus musculus [12] = experiment: In vivo inhibition of LPS-induced MD2/TLR4 complex formation in lung tissues of acute lung injury C57BL/6 mouse model at 20 mg/kg, po treated 15 mins before LPS challenge measured after 6 hrs by immunoprecipitation assay; format: functional, organism-based
Mus musculus [13] = experiment: Antiinflammatory activity in acute lung injury C57BL/6 mouse model assessed as inhibition of LPS-induced infiltration of inflammatory cells at 20 mg/kg, po treated 15 mins before LPS challenge measured after 6 hrs by hematoxylin and eosin staining based light microscopic analysis; format: functional, organism-based
[14] = target: Toll-like receptor 2 (Mus musculus) (UniProt Q9QUN7); experiment: Inhibition of TLR2 in mouse RAW264.7 cells assessed as inhibition of Pam3CK-induced IL-6 level at 5 to 10 uM preincubated for 2 hrs followed by Pam3CK addition measured after 12 hrs by ELISA; format: cell-based
Mus musculus [15] = experiment: Antiinflammatory activity in acute lung injury C57BL/6 mouse model assessed as inhibition of LPS-induced pulmonary congestion at 20 mg/kg, po treated 15 mins before LPS challenge measured after 6 hrs by hematoxylin and eosin staining based light microscopic analysis; format: functional, organism-based
Mus musculus [16] = experiment: Antiinflammatory activity in acute lung injury C57BL/6 mouse model assessed as inhibition of LPS-induced MPO activity in lung tissues at 20 mg/kg, po treated 15 mins before LPS challenge measured after 6 hrs; format: functional, organism-based
[17] = target: Mitogen-activated protein kinase 9 (Homo sapiens) (UniProt P45984); experiment: Inhibition of recombinant human N-terminal GST-tagged JNK2 catalytic domain (1 to 364 residues) expressed in Escherichia coli using modified erktide as substrate at 0.05 to 50 uM after 1 hr by microfluidic assay
Mus musculus [18] = experiment: Antiinflammatory activity in acute lung injury C57BL/6 mouse model assessed as inhibition of LPS-induced IL-6 mRNA expression in lung tissues at 20 mg/kg, po treated 15 mins before LPS challenge measured after 6 hrs; format: functional, organism-based
Mus musculus [19] = experiment: Antiinflammatory activity in acute lung injury C57BL/6 mouse model assessed as inhibition of LPS-induced increase in neutrophil level in bronchoalveolar lavage fluid at 20 mg/kg, po treated 15 mins before LPS challenge measured after 6 hrs by wright-gimesa staining based assay; format: functional, organism-based
Mus musculus [20] = experiment: as §1, with “macrophage infilteration by measuring reduction in CD68” for “IL-1beta mRNA”, “hrs by DAB staining based immunohistochemical analysis” for “hrs”; format: functional, organism-based
[21] = Cmax in Sprague-Dawley rat plasma at 20 mg/kg, po measured immediately post treatment by UPLC analysis; format: ADME, organism-based; parameters: dose 20 mg/kg, route oral
Mus musculus [22] = experiment: Antiinflammatory activity in acute lung injury C57BL/6 mouse model assessed as inhibition of LPS-induced lung edema at 20 mg/kg, po treated 15 mins before LPS challenge measured after 6 hrs; format: functional, organism-based
Mus musculus [23] = experiment: Antiinflammatory activity in acute lung injury C57BL/6 mouse model assessed as inhibition of LPS-induced interstitial edema at 20 mg/kg, po treated 15 mins before LPS challenge measured after 6 hrs by hematoxylin and eosin staining based light microscopic analysis; format: functional, organism-based
Mus musculus [24] = experiment: Antiinflammatory activity in acute lung injury C57BL/6 mouse model assessed as inhibition of LPS-induced increase in total cells in bronchoalveolar lavage fluid at 20 mg/kg, po treated 15 mins before LPS challenge measured after 6 hrs by cell counting method; format: functional, organism-based
Mus musculus [25] = experiment: Antiinflammatory activity in acute lung injury C57BL/6 mouse model assessed as inhibition of LPS-induced TNF-alpha mRNA expression in lung tissues at 20 mg/kg, po treated 15 mins before LPS challenge measured after 6 hrs; format: functional, organism-based
[26] = Cmax in Sprague-Dawley rat plasma at 10 mg/kg, iv measured immediately post treatment by UPLC analysis; format: ADME, organism-based; parameters: dose 10 mg/kg, route intravenous
[27] = target: T2, Inhibitor of nuclear factor kappa-B kinase subunit beta (Homo sapiens) (UniProt O14920); experiment: Inhibition of recombinant human N-terminal His-tagged IKKbeta (1 to 662 residues) expressed in baculovirus expression system using modified IkBalpha-derived peptide as substrate at 0.05 to 50 uM after 1 hr by microfluidic assay
T2 sequence (whole entry): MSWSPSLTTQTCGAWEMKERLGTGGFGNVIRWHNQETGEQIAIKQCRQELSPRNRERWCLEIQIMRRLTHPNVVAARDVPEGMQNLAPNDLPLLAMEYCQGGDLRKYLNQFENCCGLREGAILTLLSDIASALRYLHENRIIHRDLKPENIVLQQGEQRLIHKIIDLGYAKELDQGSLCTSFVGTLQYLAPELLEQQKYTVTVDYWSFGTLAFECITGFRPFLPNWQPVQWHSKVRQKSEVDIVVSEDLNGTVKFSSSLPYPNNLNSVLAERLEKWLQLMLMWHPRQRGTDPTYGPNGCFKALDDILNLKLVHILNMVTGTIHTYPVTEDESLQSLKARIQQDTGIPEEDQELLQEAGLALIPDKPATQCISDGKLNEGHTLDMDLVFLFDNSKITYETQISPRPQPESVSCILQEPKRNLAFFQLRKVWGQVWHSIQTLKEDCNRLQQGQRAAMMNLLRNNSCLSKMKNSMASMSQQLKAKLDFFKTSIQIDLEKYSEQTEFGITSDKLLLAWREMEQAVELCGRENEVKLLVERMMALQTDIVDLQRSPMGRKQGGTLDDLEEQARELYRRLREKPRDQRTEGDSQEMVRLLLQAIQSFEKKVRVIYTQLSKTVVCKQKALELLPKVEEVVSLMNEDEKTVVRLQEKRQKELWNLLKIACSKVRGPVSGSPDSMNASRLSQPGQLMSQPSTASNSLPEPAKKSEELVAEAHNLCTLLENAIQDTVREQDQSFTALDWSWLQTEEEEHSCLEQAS

[28] = target: Toll-like receptor 2 (Mus musculus) (UniProt Q9QUN7); experiment: Inhibition of TLR2 in mouse RAW264.7 cells assessed as inhibition of Pam3CK-induced TNF-alpha level at 5 to 10 uM preincubated for 2 hrs followed by Pam3CK addition measured after 12 hrs by ELISA; format: cell-based
[29] = Cmax in Sprague-Dawley rat plasma at 10 mg/kg, iv after 24 hrs by UPLC analysis; format: ADME, organism-based; parameters: dose 10 mg/kg, route intravenous

Toll-like receptor 2 (Mus musculus), sequence (Q9QUN7 whole entry): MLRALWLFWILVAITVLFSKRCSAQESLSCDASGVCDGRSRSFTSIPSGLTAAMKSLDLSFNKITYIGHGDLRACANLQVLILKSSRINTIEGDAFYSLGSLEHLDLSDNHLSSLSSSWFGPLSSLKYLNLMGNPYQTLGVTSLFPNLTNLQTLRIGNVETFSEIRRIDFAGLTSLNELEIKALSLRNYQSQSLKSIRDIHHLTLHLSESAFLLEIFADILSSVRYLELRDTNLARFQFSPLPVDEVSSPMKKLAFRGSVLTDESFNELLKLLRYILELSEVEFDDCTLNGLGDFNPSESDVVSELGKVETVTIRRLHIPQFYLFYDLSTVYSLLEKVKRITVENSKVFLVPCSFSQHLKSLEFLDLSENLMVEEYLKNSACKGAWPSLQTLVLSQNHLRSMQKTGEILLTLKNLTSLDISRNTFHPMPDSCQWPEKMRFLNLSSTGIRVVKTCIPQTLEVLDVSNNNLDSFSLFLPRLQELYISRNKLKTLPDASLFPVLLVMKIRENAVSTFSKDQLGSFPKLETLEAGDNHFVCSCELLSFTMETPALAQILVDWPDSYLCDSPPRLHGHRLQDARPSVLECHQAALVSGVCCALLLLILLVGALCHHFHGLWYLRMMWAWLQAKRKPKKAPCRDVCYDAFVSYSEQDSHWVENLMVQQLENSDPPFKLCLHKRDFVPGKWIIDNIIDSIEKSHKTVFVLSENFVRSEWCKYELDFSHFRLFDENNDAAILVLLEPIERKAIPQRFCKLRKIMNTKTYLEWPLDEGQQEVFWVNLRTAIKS
Mitogen-activated protein kinase 14 (Homo sapiens), sequence (Q16539 whole entry, the tested form may be a part): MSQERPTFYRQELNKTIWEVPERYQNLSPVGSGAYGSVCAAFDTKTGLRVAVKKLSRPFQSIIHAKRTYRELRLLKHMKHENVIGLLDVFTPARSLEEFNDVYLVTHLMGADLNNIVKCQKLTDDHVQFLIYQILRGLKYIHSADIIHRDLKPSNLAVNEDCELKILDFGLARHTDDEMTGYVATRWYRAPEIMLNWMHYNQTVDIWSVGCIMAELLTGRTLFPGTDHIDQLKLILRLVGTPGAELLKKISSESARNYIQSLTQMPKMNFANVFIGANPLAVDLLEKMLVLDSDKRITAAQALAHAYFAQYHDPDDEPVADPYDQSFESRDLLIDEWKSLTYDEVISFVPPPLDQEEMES
Mitogen-activated protein kinase 9 (Homo sapiens), sequence (P45984 whole entry, looked up, the tested form may be a part): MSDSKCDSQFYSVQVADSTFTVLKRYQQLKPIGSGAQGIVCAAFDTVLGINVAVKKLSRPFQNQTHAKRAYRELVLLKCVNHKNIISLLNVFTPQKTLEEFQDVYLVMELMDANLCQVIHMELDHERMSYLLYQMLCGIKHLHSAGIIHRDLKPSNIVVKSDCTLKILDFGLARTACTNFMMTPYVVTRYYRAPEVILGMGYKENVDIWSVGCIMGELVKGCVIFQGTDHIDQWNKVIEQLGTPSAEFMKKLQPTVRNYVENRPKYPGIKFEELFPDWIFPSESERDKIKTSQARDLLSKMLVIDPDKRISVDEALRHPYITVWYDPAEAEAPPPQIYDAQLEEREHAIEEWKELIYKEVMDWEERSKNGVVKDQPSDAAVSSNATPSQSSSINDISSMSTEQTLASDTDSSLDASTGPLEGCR
Mitogen-activated protein kinase 11 (Homo sapiens), sequence (Q15759 whole entry, the tested form may be a part): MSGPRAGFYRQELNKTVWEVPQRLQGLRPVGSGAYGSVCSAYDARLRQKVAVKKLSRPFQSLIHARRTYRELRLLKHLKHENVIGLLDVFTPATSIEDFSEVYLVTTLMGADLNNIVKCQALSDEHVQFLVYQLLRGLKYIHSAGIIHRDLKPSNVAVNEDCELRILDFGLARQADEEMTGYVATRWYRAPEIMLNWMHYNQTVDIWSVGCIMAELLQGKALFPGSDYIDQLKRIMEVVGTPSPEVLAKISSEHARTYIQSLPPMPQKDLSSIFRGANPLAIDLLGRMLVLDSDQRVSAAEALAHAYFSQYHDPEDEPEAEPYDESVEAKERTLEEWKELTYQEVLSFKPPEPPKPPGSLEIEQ
Mitogen-activated protein kinase 3 (Homo sapiens), sequence (P27361 whole entry, the tested form may be a part): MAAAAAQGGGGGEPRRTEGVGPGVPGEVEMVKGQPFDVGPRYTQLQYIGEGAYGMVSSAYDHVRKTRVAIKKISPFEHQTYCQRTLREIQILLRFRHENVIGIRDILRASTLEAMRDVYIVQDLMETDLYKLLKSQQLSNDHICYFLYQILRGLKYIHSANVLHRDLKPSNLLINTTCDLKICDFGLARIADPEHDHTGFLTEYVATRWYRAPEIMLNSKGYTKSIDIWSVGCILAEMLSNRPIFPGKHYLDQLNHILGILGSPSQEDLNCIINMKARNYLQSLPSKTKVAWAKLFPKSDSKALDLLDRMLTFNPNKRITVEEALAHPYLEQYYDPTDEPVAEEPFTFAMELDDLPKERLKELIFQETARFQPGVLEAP
Toll-like receptor 4 (Homo sapiens), sequence (O00206 whole entry): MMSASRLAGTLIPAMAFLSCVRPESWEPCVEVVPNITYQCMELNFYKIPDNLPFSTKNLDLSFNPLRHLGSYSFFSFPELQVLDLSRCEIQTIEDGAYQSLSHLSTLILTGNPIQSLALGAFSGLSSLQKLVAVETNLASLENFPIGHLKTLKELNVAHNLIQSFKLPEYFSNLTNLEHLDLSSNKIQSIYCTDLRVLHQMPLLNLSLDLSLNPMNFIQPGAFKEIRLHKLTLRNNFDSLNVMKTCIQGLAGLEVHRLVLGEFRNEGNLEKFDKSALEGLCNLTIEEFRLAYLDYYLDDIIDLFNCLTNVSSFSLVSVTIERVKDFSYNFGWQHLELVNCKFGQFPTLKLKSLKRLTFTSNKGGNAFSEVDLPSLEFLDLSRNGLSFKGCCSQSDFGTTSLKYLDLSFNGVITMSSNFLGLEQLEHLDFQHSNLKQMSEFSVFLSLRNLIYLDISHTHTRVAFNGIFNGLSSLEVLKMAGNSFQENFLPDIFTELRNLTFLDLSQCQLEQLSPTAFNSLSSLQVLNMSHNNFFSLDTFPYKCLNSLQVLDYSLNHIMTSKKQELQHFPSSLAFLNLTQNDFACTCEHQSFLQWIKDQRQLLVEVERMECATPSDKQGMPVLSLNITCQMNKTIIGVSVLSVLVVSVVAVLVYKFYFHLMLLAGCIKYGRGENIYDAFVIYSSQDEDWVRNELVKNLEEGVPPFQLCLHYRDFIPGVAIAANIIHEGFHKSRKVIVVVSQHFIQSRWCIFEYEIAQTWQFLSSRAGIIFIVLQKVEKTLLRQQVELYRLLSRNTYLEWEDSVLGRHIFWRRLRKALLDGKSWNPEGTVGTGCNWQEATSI

- inhibition [1]: inactive
SMILES: COc1nccc(-c2c(-c3ccc(F)cc3)ncn2[C@H]2CC[C@H](O)CC2)n1

SMILES: COc1ccc(CCNC(=O)/C=C/c2ccc(O)c(OC)c2)cc1
- Activity [2]: Non-toxic

SMILES: COc1ccc(/C=C/C(=O)NCCc2ccccc2)c(OC)c1
- Activity [2]: Non-toxic

SMILES: O=C(/C=C/c1cccc(Cl)c1Cl)NCc1ccc(F)cc1
- Activity [2]: Non-toxic

SMILES: COc1cc(/C=C/C(=O)NCc2ccc(OC)c(OC)c2)ccc1O
- Activity [2]: Non-toxic

SMILES: COc1cc(/C=C/C(=O)NCCCCCCNC(=O)/C=C/c2ccc(O)c(OC)c2)ccc1O
- Activity [2]: Non-toxic

SMILES: COc1ccc(/C=C/C(=O)NCCNC(=O)/C=C/c2ccc(OC)cc2OC)c(OC)c1
- survival at 10 mg/kg (Mus musculus [3]): 100%
- inhibition (Mus musculus [4]): Active
- inhibition [5]: inactive
- Activity [2]: Non-toxic
- inhibition (Mus musculus [6]): Active
- inhibition (Mus musculus [7]): Active
- Cmax [8]: 40 ng/mL
- inhibition [9]: inactive
- inhibition [10]: inactive
- Activity [11]: inactive
- inhibition (Mus musculus [12]): Active
- inhibition (Mus musculus [13]): Active
- inhibition [14]: inactive
- inhibition (Mus musculus [15]): Active
- inhibition (Mus musculus [16]): Active
- inhibition [17]: inactive
- inhibition (Mus musculus [18]): Active
- inhibition (Mus musculus [19]): Active
- inhibition (Mus musculus [20]): Active
- Cmax [21]: 270 ng/mL
- inhibition (Mus musculus [22]): Active
- inhibition (Mus musculus [23]): Active
- inhibition (Mus musculus [24]): Active
- inhibition (Mus musculus [25]): Active
- Cmax [26]: 550 ng/mL
- inhibition [27]: inactive
- inhibition [28]: inactive
- Cmax [29]: 40 ng/mL

SMILES: COc1cc(/C=C/C(=O)NCCc2ccccc2)ccc1O
- Activity [2]: Non-toxic

SMILES: COc1ccc(CCNC(=O)/C=C/c2ccc(OC)cc2OC)cc1
- Activity [2]: Non-toxic

SMILES: O=C(/C=C/c1cccc(Cl)c1Cl)NCc1ccccc1
- Activity [2]: Non-toxic

SMILES: COc1ccc(/C=C/C(=O)NCc2ccccc2)c(OC)c1
- Activity [2]: Non-toxic

SMILES: COc1cc(/C=C/C(=O)NCc2ccc(F)cc2)ccc1O
- Activity [2]: Non-toxic

SMILES: O=C(/C=C/c1cccc(Cl)c1Cl)NCCCc1ccccc1
- Activity [2]: Non-toxic

SMILES: COc1ccc(/C=C/C(=O)NCCCc2ccccc2)c(OC)c1
- Activity [2]: Non-toxic

SMILES: COc1cc(/C=C/C(=O)NCc2ccccc2)ccc1O
- Activity [2]: Non-toxic

SMILES: CCCCNC(=O)/C=C/c1ccc(OC)cc1OC
- Activity [2]: Non-toxic

SMILES: CCCCNC(=O)/C=C/c1cccc(Cl)c1Cl
- Activity [2]: Non-toxic

SMILES: COc1cc(/C=C/C(=O)N2CCOCC2)ccc1O
- Activity [2]: Non-toxic
